{"source": "patent US20090162413A1", "about": "(priority 1998, published 2009)", "assay": "Phase 1 single escalating intravenous dose safety and pharmacokinetics (Example 6)", "format": "in vivo, human", "settings": "for β: elimination rate constant; for tolerability: single IV doses of 100 to 900 μg", "experimental": "In the present, first-time-in-man study, the safety and pharmacokinetics of zotarolimus were investigated following intravenous bolus administration of zotarolimus over a 100 to 900 μg dose range. The intravenous bolus dose administration would mimic the most rapid unexpected release of zotarolimus from drug-coated stents in vivo.\nThis was a Phase 1, single escalating dose, double-blind, randomized, placebo-controlled, single-center study. Sixty (60) adult healthy males were divided into 5 IV dose groups of 100, 300, 500, 700, and 900 μg.\nSubjects were randomly assigned to receive a single intravenous dose of zotarolimus or a matching intravenous placebo under fasting conditions, as shown in the dosing scheme shown in Table 9.\nHigher doses were administered after evaluating the safety data from the preceding lower dose groups. The treatment groups were separated by at least 7 days. For safety reasons, each treatment group was divided into two cohorts of six subjects and the doses of the two cohorts of a group were separated by at least 1 day.\nDoses were administered as IV bolus over 3 minutes, with 8 subjects. Four subjects received zotarolimus and 4 subjects received placebo in each dose group. Blood concentrations of zotarolimus were sampled for 168 hours and measured using LC-MS/MS with a LOQ of 0.20 ng/mL\nSeven (7)-mL blood samples were collected by venipuncture into evacuated collection tubes containing edetic acid (EDTA) prior to dosing (0 hour) and at 0.083 (5 min), 0.25, 0.5, 1, 2, 4, 8, 12, 16, 24, 36, 48, 72, 96, 120, 144, and 168 hours after dosing on Study Day 1.\nBlood concentrations of zotarolimus were determined using a validated liquid/liquid extraction HPLC tandem mass spectrometric method (LC-MS/MS) (Ji et al., 2004). The lower limit of quantification of zotarolimus was 0.20 ng/mL using 0.3 mL blood sample. All calibration curves had coefficient of determination (r^2) values greater than or equal to 0.9923.\nSafety was evaluated based on adverse event, physical examination, vital signs, ECG, injection site and laboratory tests assessments.\nPharmacokinetic parameter values of zotarolimus were estimated using noncompartmental methods.\nTo investigate the questions of dose proportionality and linear pharmacokinetics, an analysis of covariance (ANCOVA) was performed. Subjects were classified by dose level, and body weight was a covariate. The variables analyzed included β, Vdβ, dose-normalized C5, and logarithms of dose-normalized AUC0-last and dose-normalized AUC0-inf. The primary test of the hypothesis of invariance with dose was a test on dose-level effects with good power for a monotonic function of dose. In addition, the highest and lowest dose levels were compared within the framework of the ANCOVA", "key": {"[1]": {"settings": "single IV bolus 100 μg, mean ± SD"}, "[2]": {"settings": "single IV bolus 300 μg, mean ± SD"}, "[3]": {"settings": "single IV bolus 500 μg, mean ± SD"}, "[4]": {"settings": "single IV bolus 700 μg, mean ± SD"}, "[5]": {"settings": "single IV bolus 900 μg, mean ± SD"}}, "note": "Like-named read-outs stand apart in the source and are kept apart here."}
{"smiles": "CO[C@H]1C[C@@H]2CC[C@@H](C)[C@@](O)(O2)C(=O)C(=O)N2CCCC[C@H]2C(=O)O[C@H]([C@H](C)C[C@@H]2CC[C@H](n3cnnn3)[C@H](OC)C2)CC(=O)[C@H](C)/C=C(\\C)[C@@H](O)[C@@H](OC)C(=O)[C@H](C)C[C@H](C)/C=C/C=C/C=C/1C", "note": "[zotarolimus]", "values": [{"measurement": "dose proportionality of pharmacokinetics", "setting": "IV, 100-900 μg dose range, with respect to C5 and AUC0-inf", "result": "dose-proportional"}, {"measurement": "clearance", "setting": "male, human, whole blood, range of means over single IV doses 100-900 μg, read-out: mean clearance", "result": "48.3 to 59.2", "unit": "mL/min"}, {"measurement": "Vd", "setting": "male, human, whole blood, range of means over single IV doses 100-900 μg, read-out: mean volume of distribution", "result": "113 to 202", "unit": "L"}, {"measurement": "half-life", "setting": "male, human, whole blood, range of means over the studied single IV doses 100-900 μg, read-out: mean half-life", "result": "1560 to 2410", "unit": "min"}, {"measurement": "half-life", "setting": "male, human, whole blood, single IV bolus 100 μg, harmonic mean ± pseudo-standard deviation, read-out: t1/2 (converted)", "result": "1560 ± 360", "unit": "min"}, {"measurement": "AUC(0-t)", "setting": "male, human, whole blood, single IV bolus 100 μg, mean ± SD", "result": "24.6 ± 5.89", "unit": "ng·h/mL"}, {"measurement": "AUC(0-inf)", "setting": "male, human, whole blood, single IV bolus 100 μg, mean ± SD, read-out: AUC0-inf", "result": "35.3 ± 6.15", "unit": "ng·h/mL"}, {"measurement": "clearance", "setting": "male, human, whole blood, single IV bolus 100 μg, mean ± SD, read-out: CL (converted)", "result": 48.3, "unit": "mL/min"}, {"measurement": "half-life", "setting": "male, human, whole blood, single IV bolus 300 μg, harmonic mean ± pseudo-standard deviation, read-out: t1/2 (converted)", "result": "2150 ± 276", "unit": "min"}, {"measurement": "AUC(0-t)", "setting": "male, human, whole blood, single IV bolus 300 μg, mean ± SD", "result": "77.8 ± 13.7", "unit": "ng·h/mL"}, {"measurement": "AUC(0-inf)", "setting": "male, human, whole blood, single IV bolus 300 μg, mean ± SD, read-out: AUC0-inf", "result": "91.2 ± 14.7", "unit": "ng·h/mL"}, {"measurement": "clearance", "setting": "male, human, whole blood, single IV bolus 300 μg, mean ± SD, read-out: CL (converted)", "result": 56, "unit": "mL/min"}, {"measurement": "half-life", "setting": "male, human, whole blood, single IV bolus 500 μg, harmonic mean ± pseudo-standard deviation, read-out: t1/2 (converted)", "result": "2410 ± 468", "unit": "min"}, {"measurement": "concentration at 5 min", "setting": "male, human, whole blood, single IV bolus 500 μg, healthy males, blood, concentration at 5 minutes, mean ± SD (N = 7), read-out: C5", "result": "56.5 ± 27.5", "unit": "ng/mL"}, {"measurement": "AUC(0-t)", "setting": "male, human, whole blood, single IV bolus 500 μg, mean ± SD", "result": "146 ± 32.4", "unit": "ng·h/mL"}, {"measurement": "AUC(0-inf)", "setting": "male, human, whole blood, single IV bolus 500 μg, mean ± SD, read-out: AUC0-inf", "result": "162 ± 29.6", "unit": "ng·h/mL"}, {"measurement": "clearance", "setting": "male, human, whole blood, single IV bolus 500 μg, mean ± SD, read-out: CL (converted)", "result": 52.8, "unit": "mL/min"}, {"measurement": "AUC(0-t)", "setting": "male, human, whole blood, single IV bolus 700 μg, mean ± SD", "result": "208 ± 19.4", "unit": "ng·h/mL"}, {"measurement": "AUC(0-inf)", "setting": "male, human, whole blood, single IV bolus 700 μg, mean ± SD, read-out: AUC0-inf", "result": "222 ± 19.6", "unit": "ng·h/mL"}, {"measurement": "AUC(0-t)", "setting": "male, human, whole blood, single IV bolus 900 μg, mean ± SD", "result": "241 ± 19.2", "unit": "ng·h/mL"}, {"measurement": "AUC(0-inf)", "setting": "male, human, whole blood, single IV bolus 900 μg, mean ± SD, read-out: AUC0-inf", "result": "254 ± 17.6", "unit": "ng·h/mL"}, {"measurement": "clearance", "setting": "male, human, whole blood, single IV bolus 900 μg, mean ± SD, read-out: CL (converted)", "result": 59.2, "unit": "mL/min"}, {"measurement": "β", "setting": "[1]", "result": "0.027 ± 0.006", "unit": "h⁻¹"}, {"measurement": "AUC0-inf/Dose", "setting": "[1]", "result": "0.35 ± 0.06", "unit": "ng·h/mL/µg"}, {"measurement": "AUC0-last/Dose", "setting": "[1]", "result": "0.25 ± 0.06", "unit": "ng·h/mL/µg"}, {"measurement": "C5/Dose", "setting": "[1]", "result": "0.13 ± 0.03", "unit": "ng/mL/µg"}, {"measurement": "Vdβ", "setting": "[1]", "result": "113 ± 23", "unit": "L"}, {"measurement": "β", "setting": "[2]", "result": "0.019 ± 0.002", "unit": "h⁻¹"}, {"measurement": "AUC0-inf/Dose", "setting": "[2]", "result": "0.30 ± 0.05", "unit": "ng·h/mL/µg"}, {"measurement": "AUC0-last/Dose", "setting": "[2]", "result": "0.26 ± 0.05", "unit": "ng·h/mL/µg"}, {"measurement": "C5/Dose", "setting": "[2]", "result": "0.12 ± 0.03", "unit": "ng/mL/µg"}, {"measurement": "Vdβ", "setting": "[2]", "result": "175 ± 23", "unit": "L"}, {"measurement": "β", "setting": "[3]", "result": "0.017 ± 0.003", "unit": "h⁻¹"}, {"measurement": "C5", "setting": "single IV bolus 500 μg, healthy males, blood, concentration at 5 minutes, mean ± SD (N = 7)", "result": "56.50 ± 27.54", "unit": "ng/mL"}, {"measurement": "AUC0-inf/Dose", "setting": "[3]", "result": "0.32 ± 0.06", "unit": "ng·h/mL/µg"}, {"measurement": "AUC0-last/Dose", "setting": "[3]", "result": "0.29 ± 0.06", "unit": "ng·h/mL/µg"}, {"measurement": "AUC(0-inf)", "setting": "[3]", "result": "162.44 ± 9.58", "unit": "ng·h/mL"}, {"measurement": "C5/Dose", "setting": "[3]", "result": "0.11 ± 0.05", "unit": "ng/mL/µg"}, {"measurement": "Vdβ", "setting": "[3]", "result": "190 ± 49", "unit": "L"}, {"measurement": "β", "setting": "[4]", "result": "0.020 ± 0.001", "unit": "h⁻¹"}, {"measurement": "t1/2", "setting": "single IV bolus 700 μg, harmonic mean ± pseudo-standard deviation", "result": "35.0 ± 2.4", "unit": "h"}, {"measurement": "AUC0-inf/Dose", "setting": "[4]", "result": "0.32 ± 0.03", "unit": "ng·h/mL/µg"}, {"measurement": "AUC0-last/Dose", "setting": "[4]", "result": "0.30 ± 0.03", "unit": "ng·h/mL/µg"}, {"measurement": "C5/Dose", "setting": "[4]", "result": "0.13 ± 0.01", "unit": "ng/mL/µg"}, {"measurement": "CL", "setting": "[4]", "result": "3.18 ± 0.28", "unit": "L/h"}, {"measurement": "Vdβ", "setting": "[4]", "result": "161 ± 15", "unit": "L"}, {"measurement": "β", "setting": "[5]", "result": "0.018 ± 0.002", "unit": "h⁻¹"}, {"measurement": "t1/2", "setting": "single IV bolus 900 μg, harmonic mean ± pseudo-standard deviation", "result": "39.0 ± 3.9", "unit": "h"}, {"measurement": "AUC0-inf/Dose", "setting": "[5]", "result": "0.28 ± 0.02", "unit": "ng·h/mL/µg"}, {"measurement": "AUC0-last/Dose", "setting": "[5]", "result": "0.27 ± 0.02", "unit": "ng·h/mL/µg"}, {"measurement": "C5/Dose", "setting": "[5]", "result": "0.12 ± 0.02", "unit": "ng/mL/µg"}, {"measurement": "Vdβ", "setting": "[5]", "result": "202 ± 29", "unit": "L"}, {"measurement": "serious adverse events", "setting": "single IV doses 100-900 μg", "result": "no serious adverse events"}, {"measurement": "tolerability", "setting": "healthy males", "result": "without safety concerns"}, {"measurement": "tolerability", "setting": "healthy males, listed as Zotarolimus", "result": "generally well tolerated"}, {"measurement": "most common treatment-emergent adverse events", "setting": "single IV doses, reported by two or more subjects in any one treatment group", "result": "injection site reaction and pain"}]}
